Experimental data reported in patent publication US12319677B2, “Process for the production of 5-(4-((2S,5S)-5-(4-chlorobenzyl)-2-methyl-morpholino)piperidin-1-yl)-1H-1,2,4-triazol-3-amine” (Molecure S.A., priority 2019, dated 2025).
Where “and” joins values, the source holds several entries; their conditions need not be identical. Equal entries are not always repeated. Each block holds one molecule with its values, some of them ahead of it.

How the values were obtained:
Type in all cases: physicochemical
[1] = Particle size distribution (PSD), Malvern Mastersizer 2000 in Isopar G; settings: three batches of the anhydrous form made by method D
From the text: The synthesis of the compound of formula 1 hydrated form I followed by the synthesis of the compound of the formula 1 anhydrous form has a significant advantage as compared to the synthesis of the compound of formula 1 described in WO 2017/037670. Under new conditions, the precipitation of the compound of the formula 1 hydrated form I unobviously allows to control the amount of residual hydrazine which is considered as a genotoxic impurity and must be controlled at ppm levels. The method outlined in the previous paragraph was used for the synthesis of three batches of the anhydrous form of the compound of formula 1. This material was carefully analyzed for purity, residual hydrazine level and particle size distribution.
PSD data were recoded with Malvern Mastersizer 2000 in Isopar G.

[2] = Solid-state stability of the hydrated forms upon drying; settings: leads to amorphous form
From the text: Due to the fact that the compound of formula 6 is not stable in methanol, it is not possible to obtain the hydrated form II directly from the compound 6 as for hydrated form I of the compound of formula 1. Both hydrated forms I and II of the compound of formula 1 are unstable, leading to amorphous form upon drying. The XPRD data for the dried material and data calculated from X-ray structure differ. […] The amorphous form of the compound of formula 1 can be prepared in a more convenient way by melting the anhydrous form or hydrated form I or II of the compound of formula 1 followed by cooling off the material to ambient temperature. After grinding the glass-like solid, […] of the compound of formula 1 is an off-white solid.

[3] = Stability of process intermediates (in methanol / as free base)
From the text: Under conditions described in the patent application WO 2017/037670 (sodium triacetoxy-borohydride, acetic acid and 1,2-dichloroethane), the compound of formula 11 reacts with N-Boc-4-piperidinone leading to a by-product of formula 12 which is observed in crude compound of formula 3. The impurity of formula 12 can be removed by the careful purification on silica gel but such an approach is unacceptable on a kilo-scale. […] Since the compound of formula 11 can be easily removed by crystallization after removal of the tert-butoxycarbonyl protection group, the present invention relates to a method for the synthesis of the compound of formula 5 with no impurity of formula 13. Moreover, the conditions described in this application unobviously allow one to use hydrochloride salt of the compound of formula 2 as the starting material which can facilitate the process. […]
Due to the fact that the compound of formula 6 is not stable in methanol, it is not possible to obtain the hydrated form II directly from the compound 6 as for hydrated form I of the compound of formula 1. […] The XPRD data for the dried material and data calculated from X-ray structure differ. […]

- Particle size distribution D10 [1]: 152 μm and 202 μm and 154 μm
- Particle size distribution D50 [1]: 255 μm and 357 μm and 284 μm
- Particle size distribution D90 [1]: 403 μm and 577 μm and 485 μm
Structure (SMILES): C[C@H]1CN(C2CCN(c3nc(N)n[nH]3)CC2)[C@@H](Cc2ccc(Cl)cc2)CO1 [1, anhydrous form, 5-(4-((2S,5S)-5-(4-chlorobenzyl)-2-methylmorpholino)piperidin-1-yl)-1H-1,2,4-triazol-3-amine]

- Stability of crystalline form [2]: unstable
Structure (SMILES): C[C@H]1CN(C2CCN(c3nc(N)n[nH]3)CC2)[C@@H](Cc2ccc(Cl)cc2)CO1 [1, hydrated form I, 5-(4-((2S,5S)-5-(4-chlorobenzyl)-2-methylmorpholino)piperidin-1-yl)-1H-1,2,4-triazol-3-amine]

- Stability of free base ([3]; free base (oil), must be kept as a salt to prevent decomposition): limited stability
Structure (SMILES): C[C@H]1CN[C@@H](Cc2ccc(Cl)cc2)CO1 [compound 2, (2S,5S)-5-(4-chlorobenzyl)-2-methylmorpholine]

- Stability in methanol ([3]; in methanol): not stable
Structure (SMILES): CS/C(=N\C#N)N1CCC(N2C[C@H](C)OC[C@@H]2Cc2ccc(Cl)cc2)CC1 [compound 6, methyl (Z)-4-((2S,5S)-5-(4-chlorobenzyl)-2-methylmorpholino)-N-cyanopiperidine-1-carbimidothioate]
